Measurements as given in US20250035641A1, “COMPOSITIONS AND METHODS RELATED TO PROTEIN LABELING” (The Chinese University of Hong Kong, priority 2023, published 2025).

Molecular target: HTN-CK2α (Homo sapiens, UniProt P68400)
Assay: Immunoblot of HTN-CK2α O-GlcNAcylation in HEK293T cells co-expressing fOGT
Type: cell-based
From the text: Ck2α is a well-studied OGT substrate.^17,25 Its Ser347 is conservatively O-GlcNAcylated and this modification was reported to affect its kinase activity.^16,17 We first co-expressed HTN-Ck2α and fOGT in HEK293T cells at different ratio and found the basal O-GlcNAcylation level of HTN-Ck2α was higher than what we detected in the case of HTN-BRD4. Therefore, a lower ratio of fOGT expression (1:100) was selected for the assessment of OGTAC potency (FIG. 9). […] The induction of specific O-GlcNAcylation on HTN-Ck2α was further confirmed by mass-shift assay. […] To validate the direct binding to both fOGT and HTN-Ck2α is critical, we exploited AP 1867 and rhodamine ligand, which bind to fOGT and HTN-Ck2α respectively, to co-treat with OGTAC-1.
During immunoblotting study, we noticed that even for whole cell lysate (WCL), RL2 antibody band (green) and HTN-CK2α protein band (red) are perfectly overlapped and clearly distinguishable from other bands on blot (FIG. 6B). We assessed the OGTAC treatment effects by quantifying the RL2 signal that is overlapping with HTN-Ck2α in WCL, and found they are corresponding with the results achieved by IP-WB method (FIG. 6C). Therefore, we quantify the intensity of RL2 band that overlapping with HTN-CK2α level instead of IP CK2α in later study.
For each IP reaction, 2.2×10^6 HEK293T cells were seed in 10 cm dish. After cells attached, transfection reagents and plasmids were prepared and added in DMEM. After 24 h transfection, media were replaced by fresh warm complete media with DMSO or probes. For washout study, after 4 h treatment, media with DMSO or OGTAC-4 (500 nM) were replaced by fresh media with DMSO or AP1867 (50 μM) for further incubation. After certain time of OGTACs treatment, cells were collected by cold PBS and lysed by 200 μL complete IP lysis buffer. The lysate was incubated on ice for 20 min, spun down at 14,000 RPM at 4° C. for 15 mins, and the supernatant were collected for bicinchoninic acid (BCA) assay and normalized to a final 2 mg/mL. For input, 20 μL of diluted sample was reacted with equal volume of 10 μM TMR ligand in IP lysis buffer and rotate gently at RT for 15 mins. The remaining samples were subjected to protein A/G magnetic beads (MedChemExpress, HY-K0202), which pre-binding with protein target protein antibody. For samples for LC-MS/MS or HTN-BRD4 mutant constructs. Halo-Trap Magnetic Agarose (Proteintech, otma) was used to incubate with protein lysates. After gentle rotation at 4° C. for at least 16 h, the beads were washed with IP lysis buffer and boiled in 40 μL 2×SDS-loading buffer (Biorad #1610747) for 5 mins to elute proteins from beads. Eluted samples were directly subjected into WB analysis. To get stronger signal of RL2, we used anti-mouse-HRP (Cell signaling, #7076) as secondary antibody for RL2 and anti-rabbit-DyLight 488 (Invitrogen, #35552) as secondary antibody for total target proteins.
In general, cells (from 12 well plate) were lysed by 80 μl RIPA lysis buffer (Thermo Scientic 89901) supplemented with 20 μM OGA inhibitor (Thaimet G, Bidepharm BD571819) and 100X protease inhibitor (MedChemExpress, HY-K0010), incubated on ice for 20 min, spun down at 14,000 RPM at 4° C. for 15 mins, and the supernatant were collected for bicinchoninic acid (BCA) assay and normalizedeto a final 2 mg/mL concentration. About 30 μg of protein samples were loaded for sodium dodecyl sulfatepolyacrylamide gel electrophoresis (SDS-PADE) and blotted with indicated antibodies.

Sequence of HTN-CK2α (P68400 with tags, fused parts or gaps): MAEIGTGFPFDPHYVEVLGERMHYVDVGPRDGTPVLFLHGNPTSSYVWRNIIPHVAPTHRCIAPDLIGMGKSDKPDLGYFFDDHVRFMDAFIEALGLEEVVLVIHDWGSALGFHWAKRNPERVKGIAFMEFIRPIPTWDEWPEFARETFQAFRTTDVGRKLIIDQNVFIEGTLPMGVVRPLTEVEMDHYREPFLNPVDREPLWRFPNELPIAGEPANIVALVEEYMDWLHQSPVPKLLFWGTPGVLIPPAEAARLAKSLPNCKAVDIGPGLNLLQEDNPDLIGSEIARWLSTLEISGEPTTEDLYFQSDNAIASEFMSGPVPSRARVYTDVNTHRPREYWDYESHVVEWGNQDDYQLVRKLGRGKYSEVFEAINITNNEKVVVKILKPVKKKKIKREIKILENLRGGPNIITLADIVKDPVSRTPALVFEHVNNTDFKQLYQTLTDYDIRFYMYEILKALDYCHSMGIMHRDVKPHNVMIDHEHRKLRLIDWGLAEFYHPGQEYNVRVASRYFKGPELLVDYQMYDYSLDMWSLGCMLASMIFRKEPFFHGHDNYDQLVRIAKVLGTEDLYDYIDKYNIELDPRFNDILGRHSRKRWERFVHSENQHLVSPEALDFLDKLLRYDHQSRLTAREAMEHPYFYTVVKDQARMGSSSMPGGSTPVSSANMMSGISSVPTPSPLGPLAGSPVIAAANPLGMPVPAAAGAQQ
Sequence of HTN-CK2α (P62942+O15294 fused P62942:F37V partner): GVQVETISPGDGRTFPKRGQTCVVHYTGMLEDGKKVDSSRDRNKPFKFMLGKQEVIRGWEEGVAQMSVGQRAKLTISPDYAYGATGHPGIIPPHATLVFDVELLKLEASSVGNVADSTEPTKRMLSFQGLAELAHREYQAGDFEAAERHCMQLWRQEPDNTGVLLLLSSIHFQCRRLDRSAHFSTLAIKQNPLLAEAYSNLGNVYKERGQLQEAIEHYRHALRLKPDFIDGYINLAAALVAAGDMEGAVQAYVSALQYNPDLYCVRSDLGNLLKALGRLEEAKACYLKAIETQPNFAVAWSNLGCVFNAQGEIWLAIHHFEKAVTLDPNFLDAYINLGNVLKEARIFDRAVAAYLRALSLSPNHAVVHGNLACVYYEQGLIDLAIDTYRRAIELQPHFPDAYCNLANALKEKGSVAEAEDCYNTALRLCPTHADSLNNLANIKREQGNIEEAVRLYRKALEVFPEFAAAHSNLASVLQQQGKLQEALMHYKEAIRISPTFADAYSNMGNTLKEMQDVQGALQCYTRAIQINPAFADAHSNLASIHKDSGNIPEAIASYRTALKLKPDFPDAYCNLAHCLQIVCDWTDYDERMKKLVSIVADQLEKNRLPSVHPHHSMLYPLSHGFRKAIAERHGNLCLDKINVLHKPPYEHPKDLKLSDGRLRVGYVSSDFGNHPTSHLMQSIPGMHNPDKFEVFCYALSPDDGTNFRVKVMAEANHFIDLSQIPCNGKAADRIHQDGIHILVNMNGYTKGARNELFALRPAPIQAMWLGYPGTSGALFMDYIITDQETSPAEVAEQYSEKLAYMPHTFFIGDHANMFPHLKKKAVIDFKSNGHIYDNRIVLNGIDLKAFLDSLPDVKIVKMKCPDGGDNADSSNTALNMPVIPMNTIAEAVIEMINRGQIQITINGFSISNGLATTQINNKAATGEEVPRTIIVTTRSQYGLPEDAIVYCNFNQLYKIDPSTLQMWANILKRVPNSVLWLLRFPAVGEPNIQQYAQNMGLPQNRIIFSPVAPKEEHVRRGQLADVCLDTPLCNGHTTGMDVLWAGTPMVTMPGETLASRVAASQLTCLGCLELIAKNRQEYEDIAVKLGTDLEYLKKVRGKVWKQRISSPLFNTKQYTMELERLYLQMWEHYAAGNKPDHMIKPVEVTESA

- time at which induction of HTN-CK2α O-GlcNAcylation happened (250 nM): ≤ 4 h
- time of peak induction of HTN-CK2α O-GlcNAcylation (250 nM): 8 h
- fold increase of O-GlcNAcylation on HTN-CK2α, whole cell lysate WB (500 nM and 1 μM): higher fold increase of O-GlcNAcylation
- concentration of peak induction of HTN-CK2α O-GlcNAcylation (24 h treatment): 1 µM
- HTN-CK2α O-GlcNAcylation inducing effect among OGTAC-1/2/3 (IP-WB, fOGT ratio 1:100): prevailed among 3 OGTACs
SMILES: CC[C@H](C(=O)N1CCCC[C@H]1C(=O)O[C@H](CCc1ccc(OC)c(OC)c1)c1cccc(OCC(=O)NCCOCCOCCCCCCCl)c1)c1cc(OC)c(OC)c(OC)c1 [OGTAC-1, (R)-1-(3-(2-((2-(2-((6-chlorohexyl)oxy)ethoxy)ethyl)amino)-2-oxoethoxy)phenyl)-3-(3,4-dimethoxyphenyl)propyl (S)-1-((S)-2-(3,4,5-trimethoxyphenyl)butanoyl) piperidine-2-carboxylate]
